Laboratory results: patent US9340590B2 (priority 2011, dated 2016)
Where two headings read alike, the source gives them in different places. Positions of bridges follow the written chain, without caps; N, C: chain ends. Residues, ends and D or L forms follow the SMILES beside them.

Assays:
[1] = biological target: hNav1.3 (Homo sapiens, UniProt Q9NY46); test: cell-based; settings: IonWorks Quattro, read-out: IWQ Use Nav1.3
[2] = biological target: hNav1.5 (Homo sapiens, UniProt Q14524); test: cell-based
hNav1.5, sequence (Q14524 whole entry, looked up): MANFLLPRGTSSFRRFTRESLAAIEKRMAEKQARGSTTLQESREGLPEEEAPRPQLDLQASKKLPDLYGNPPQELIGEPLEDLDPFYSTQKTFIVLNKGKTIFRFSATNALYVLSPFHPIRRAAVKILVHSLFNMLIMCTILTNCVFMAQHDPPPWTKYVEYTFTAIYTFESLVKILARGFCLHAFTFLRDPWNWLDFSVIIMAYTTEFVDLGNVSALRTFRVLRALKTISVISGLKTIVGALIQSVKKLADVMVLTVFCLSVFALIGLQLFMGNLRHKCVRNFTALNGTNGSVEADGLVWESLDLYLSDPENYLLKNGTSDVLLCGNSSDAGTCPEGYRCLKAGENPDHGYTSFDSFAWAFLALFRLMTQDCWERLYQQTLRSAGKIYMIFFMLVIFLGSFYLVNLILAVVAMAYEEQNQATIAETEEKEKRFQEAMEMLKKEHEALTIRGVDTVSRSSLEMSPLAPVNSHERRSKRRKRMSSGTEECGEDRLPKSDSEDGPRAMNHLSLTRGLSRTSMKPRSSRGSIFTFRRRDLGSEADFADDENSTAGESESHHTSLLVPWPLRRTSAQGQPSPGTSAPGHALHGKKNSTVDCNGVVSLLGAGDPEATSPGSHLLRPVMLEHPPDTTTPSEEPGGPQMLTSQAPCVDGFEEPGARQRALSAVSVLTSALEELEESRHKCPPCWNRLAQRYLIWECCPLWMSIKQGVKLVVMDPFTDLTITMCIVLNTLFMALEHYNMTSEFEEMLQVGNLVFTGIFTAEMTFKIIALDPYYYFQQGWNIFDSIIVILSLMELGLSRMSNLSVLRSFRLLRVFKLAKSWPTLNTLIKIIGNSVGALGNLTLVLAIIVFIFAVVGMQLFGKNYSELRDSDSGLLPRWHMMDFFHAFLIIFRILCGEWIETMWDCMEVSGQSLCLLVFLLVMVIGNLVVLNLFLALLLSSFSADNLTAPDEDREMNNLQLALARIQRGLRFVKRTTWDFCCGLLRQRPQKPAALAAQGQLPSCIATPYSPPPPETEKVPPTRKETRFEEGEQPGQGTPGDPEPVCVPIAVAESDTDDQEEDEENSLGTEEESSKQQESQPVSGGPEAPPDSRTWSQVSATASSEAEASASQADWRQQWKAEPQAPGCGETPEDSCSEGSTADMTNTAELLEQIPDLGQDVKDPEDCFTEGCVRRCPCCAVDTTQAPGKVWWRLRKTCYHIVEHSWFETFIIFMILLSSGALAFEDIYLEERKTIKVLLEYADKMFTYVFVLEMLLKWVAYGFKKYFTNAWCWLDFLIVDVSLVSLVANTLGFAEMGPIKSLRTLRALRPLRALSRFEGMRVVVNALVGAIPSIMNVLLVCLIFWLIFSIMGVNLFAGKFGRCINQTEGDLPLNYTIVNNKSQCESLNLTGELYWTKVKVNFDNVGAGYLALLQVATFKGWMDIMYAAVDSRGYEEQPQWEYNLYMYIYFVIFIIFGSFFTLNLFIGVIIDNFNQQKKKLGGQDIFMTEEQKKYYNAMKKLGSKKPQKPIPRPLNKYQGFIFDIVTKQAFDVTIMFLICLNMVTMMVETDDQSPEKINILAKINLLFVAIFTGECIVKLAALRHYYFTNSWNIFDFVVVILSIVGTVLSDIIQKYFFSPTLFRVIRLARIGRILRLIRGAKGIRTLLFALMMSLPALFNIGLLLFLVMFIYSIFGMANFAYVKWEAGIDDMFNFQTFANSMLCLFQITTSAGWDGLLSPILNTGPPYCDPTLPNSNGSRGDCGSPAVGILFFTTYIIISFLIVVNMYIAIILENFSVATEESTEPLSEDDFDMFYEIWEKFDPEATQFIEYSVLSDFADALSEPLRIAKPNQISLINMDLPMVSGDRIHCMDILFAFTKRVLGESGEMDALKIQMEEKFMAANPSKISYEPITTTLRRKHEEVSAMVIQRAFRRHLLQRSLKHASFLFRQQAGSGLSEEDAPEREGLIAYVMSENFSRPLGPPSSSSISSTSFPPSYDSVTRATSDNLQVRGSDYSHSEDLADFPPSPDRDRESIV

[3] = clamped to −110 mV, depolarized to −10 mV, 5 min after compound, n=2
[4] = IonWorks Quattro, clamped to −110 mV, depolarized to −10 mV, 5 min after compound, n=2, read-out: IWQ Use Nav1.5

hNav1.3, sequence (Q9NY46 whole entry, looked up): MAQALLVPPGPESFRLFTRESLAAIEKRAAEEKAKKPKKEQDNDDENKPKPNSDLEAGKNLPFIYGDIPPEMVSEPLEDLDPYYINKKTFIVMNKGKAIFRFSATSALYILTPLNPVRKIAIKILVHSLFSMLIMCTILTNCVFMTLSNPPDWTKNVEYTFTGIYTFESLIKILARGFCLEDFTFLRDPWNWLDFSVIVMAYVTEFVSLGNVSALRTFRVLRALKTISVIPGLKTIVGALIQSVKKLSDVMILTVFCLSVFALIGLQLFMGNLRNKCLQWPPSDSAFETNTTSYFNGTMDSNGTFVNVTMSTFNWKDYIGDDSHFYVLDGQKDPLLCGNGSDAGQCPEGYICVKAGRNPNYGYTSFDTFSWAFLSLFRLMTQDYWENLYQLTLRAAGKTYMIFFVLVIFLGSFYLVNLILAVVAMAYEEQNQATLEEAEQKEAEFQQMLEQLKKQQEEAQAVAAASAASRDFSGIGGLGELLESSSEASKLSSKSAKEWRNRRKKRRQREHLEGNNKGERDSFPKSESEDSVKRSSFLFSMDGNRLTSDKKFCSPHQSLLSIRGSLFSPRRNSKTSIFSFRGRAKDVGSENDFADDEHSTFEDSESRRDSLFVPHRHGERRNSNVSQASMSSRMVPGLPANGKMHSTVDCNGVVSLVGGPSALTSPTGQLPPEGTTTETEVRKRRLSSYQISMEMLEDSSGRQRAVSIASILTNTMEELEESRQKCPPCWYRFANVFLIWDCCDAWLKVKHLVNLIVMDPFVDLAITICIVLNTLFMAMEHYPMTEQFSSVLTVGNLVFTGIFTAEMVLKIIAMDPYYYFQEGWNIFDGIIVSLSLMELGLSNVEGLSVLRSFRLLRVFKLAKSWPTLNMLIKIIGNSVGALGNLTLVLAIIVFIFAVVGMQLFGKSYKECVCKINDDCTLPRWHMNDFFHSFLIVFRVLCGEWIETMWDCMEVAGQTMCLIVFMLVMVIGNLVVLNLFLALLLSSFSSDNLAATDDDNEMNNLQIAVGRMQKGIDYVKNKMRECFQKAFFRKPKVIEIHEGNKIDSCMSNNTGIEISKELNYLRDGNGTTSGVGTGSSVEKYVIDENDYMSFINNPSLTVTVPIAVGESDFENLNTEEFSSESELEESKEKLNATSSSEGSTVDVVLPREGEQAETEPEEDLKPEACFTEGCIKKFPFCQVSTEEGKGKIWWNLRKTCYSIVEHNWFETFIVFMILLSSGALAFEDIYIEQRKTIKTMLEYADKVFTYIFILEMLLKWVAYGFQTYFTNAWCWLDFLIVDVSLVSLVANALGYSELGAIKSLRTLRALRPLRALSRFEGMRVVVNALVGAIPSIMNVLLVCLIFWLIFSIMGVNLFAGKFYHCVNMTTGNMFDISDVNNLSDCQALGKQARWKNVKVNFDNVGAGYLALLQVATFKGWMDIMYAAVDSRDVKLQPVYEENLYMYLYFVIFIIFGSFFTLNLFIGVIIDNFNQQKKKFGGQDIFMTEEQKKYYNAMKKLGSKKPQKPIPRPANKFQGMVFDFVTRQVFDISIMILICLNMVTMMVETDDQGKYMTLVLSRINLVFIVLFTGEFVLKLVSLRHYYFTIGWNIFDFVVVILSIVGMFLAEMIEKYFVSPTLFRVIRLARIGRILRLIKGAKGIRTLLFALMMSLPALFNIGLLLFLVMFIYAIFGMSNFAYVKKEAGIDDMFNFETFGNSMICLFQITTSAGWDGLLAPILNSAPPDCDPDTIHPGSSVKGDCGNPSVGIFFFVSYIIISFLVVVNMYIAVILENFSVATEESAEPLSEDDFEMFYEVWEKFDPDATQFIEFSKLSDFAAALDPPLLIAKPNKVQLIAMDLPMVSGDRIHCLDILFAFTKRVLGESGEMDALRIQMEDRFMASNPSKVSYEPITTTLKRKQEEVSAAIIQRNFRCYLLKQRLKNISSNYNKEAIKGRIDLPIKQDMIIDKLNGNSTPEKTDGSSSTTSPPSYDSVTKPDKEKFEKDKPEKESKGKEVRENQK

Question: Which IC50 ([1]; Table 24, use, […]) does the source give for `CC[C@H](C)[C@@H]1NC(=O)[C@@H]2CSSC[C@@H]3NC(=O)[C@H](C(C)C)NC(=O)[C@H](CC(C)C)NC(=O)[C@H](CC(N)=O)NC(=O)[C@@H]4CCCN4C(=O)[C@H](CCCNC(=N)N)NC(=O)[C@H](CSSC[C@H](NC(=O)[C@@H](N)CC(=O)O)C(=O)N[C@@H](CC(C)C)C(=O)NCC(=O)N[C@@H](Cc4ccccc4)C(=O)N[C@@H](CCSC)C(=O)N[C@@H](CCCNC(=N)N)C(=O)N[C@@H](CCCCN)C(=O)N2)NC(=O)[C@H](CSSC[C@@H](C(=O)N[C@@H](CCCCN)C(=O)N[C@@H](Cc2ccc(O)cc2)C(=O)N[C@H](C(=O)N[C@@H](Cc2ccccc2)C(N)=O)C(C)C)NC(=O)[C@H](Cc2ccc(O)cc2)NC(=O)[C@H](CCCCN)NC(=O)[C@H](Cc2c[nH]cn2)NC(=O)[C@H]([C@@H](C)O)NC(=O)[C@H](CCCNC(=N)N)NC(=O)[C@H](CO)NC3=O)NC(=O)[C@H](CCCCN)NC(=O)[C@H](CC(=O)O)NC(=O)[C@H](CC(N)=O)NC(=O)[C@H](CC(=O)O)NC(=O)[C@@H]2CCCN2C1=O` [compound 113] (H-DCLGFMRKCIPDNDKCCRPNLVCSRTHKYCKYVF-NH2; disulfide 2-17, 9-23, 16-30) here?
Answer: 4.03 µM

Question: What about the IC50 ([2]; Table 24, IonWorks Quattro, use, […], read-out: IWQ Use Nav1.5) of the same compound?
Answer: 9.49 µM

Question: With `CC[C@H](C)[C@@H]1NC(=O)[C@@H]2CSSC[C@@H]3NC(=O)[C@H](C(C)C)NC(=O)[C@H](CC(C)C)NC(=O)[C@H](CC(N)=O)NC(=O)[C@@H]4CCCN4C(=O)[C@H](CCCNC(=N)N)NC(=O)[C@H](CSSC[C@H](NC(=O)[C@@H](N)CC(=O)O)C(=O)N[C@@H](CC(C)C)C(=O)NCC(=O)N[C@@H](Cc4ccccc4)C(=O)N[C@@H](CCSC)C(=O)N[C@@H](CCCNC(=N)N)C(=O)N[C@@H](CCCCN)C(=O)N2)NC(=O)[C@H](CSSC[C@@H](C(=O)N[C@@H](CCCCN)C(=O)N[C@@H](Cc2ccc(O)cc2)C(=O)N[C@H](C(=O)N[C@@H](Cc2ccccc2)C(N)=O)C(C)C)NC(=O)[C@H](Cc2c[nH]c4ccccc24)NC(=O)[C@H](CCCCN)NC(=O)[C@H](Cc2cnc[nH]2)NC(=O)[C@H]([C@@H](C)O)NC(=O)[C@H](CCCNC(=N)N)NC(=O)[C@H](CO)NC3=O)NC(=O)[C@H](CCCCN)NC(=O)[C@H](CC(=O)O)NC(=O)[C@H](CC(N)=O)NC(=O)[C@H](CCCCN)NC(=O)[C@@H]2CCCN2C1=O` [compound 42] (H-DCLGFMRKCIPKNDKCCRPNLVCSRTHKWCKYVF-NH2; disulfide 2-17, 9-23, 16-30) as the compound, how does the IC50 ([1]; Use) read?
Answer: 0.09 µM

Question: What about the IC50 ([2]; IWQ Use Nav1.5 (μM)) of the same compound?
Answer: 6.51 µM

Question: What does the source list for `CC[C@H](C)[C@@H]1NC(=O)[C@@H]2CSSC[C@@H]3NC(=O)[C@H](C(C)C)NC(=O)[C@H](CC(C)C)NC(=O)[C@H](CC(N)=O)NC(=O)[C@@H]4CCCN4C(=O)[C@H](CCCNC(=N)N)NC(=O)[C@H](CSSC[C@H](NC(=O)[C@@H](N)CC(=O)O)C(=O)N[C@@H](CC(C)C)C(=O)N[C@@H](C)C(=O)N[C@@H](Cc4ccccc4)C(=O)N[C@@H](CCSC)C(=O)N[C@@H](CCCNC(=N)N)C(=O)N[C@@H](CCCCN)C(=O)N2)NC(=O)[C@H](CSSC[C@@H](C(=O)N[C@@H](CCCCN)C(=O)N[C@@H](Cc2ccc(O)cc2)C(=O)N[C@H](C(=O)N[C@@H](Cc2ccccc2)C(N)=O)C(C)C)NC(=O)[C@H](Cc2c[nH]c4ccccc24)NC(=O)[C@H](CCCCN)NC(=O)[C@H](Cc2cnc[nH]2)NC(=O)[C@H]([C@@H](C)O)NC(=O)[C@H](CCCNC(=N)N)NC(=O)[C@H](CO)NC3=O)NC(=O)[C@H](CCCCN)NC(=O)[C@H](CC(=O)O)NC(=O)[C@H](CC(N)=O)NC(=O)[C@H](CC(=O)O)NC(=O)[C@@H]2CCCN2C1=O` [SEQ ID NO: 141] (H-DCLAFMRKCIPDNDKCCRPNLVCSRTHKWCKYVF-NH2; disulfide 2-17, 9-23, 16-30)?
Answer: IC50 [1, 3]: 0.21 µM; IC50 ([2]; IWQ Use Nav1.5): 11.3 µM

Question: For `CC[C@H](C)[C@@H]1NC(=O)[C@@H]2CSSC[C@@H]3NC(=O)[C@H](C(C)C)NC(=O)[C@H](CC(C)C)NC(=O)[C@H](CC(N)=O)NC(=O)[C@@H]4CCCN4C(=O)[C@H](CCCNC(=N)N)NC(=O)[C@H](CSSC[C@H](NC(=O)[C@@H](N)CCCNC(=N)N)C(=O)N[C@@H](CC(C)C)C(=O)NCC(=O)N[C@@H](Cc4ccccc4)C(=O)N[C@@H](CCSC)C(=O)N[C@@H](CCCNC(=N)N)C(=O)N[C@@H](CCCCN)C(=O)N2)NC(=O)[C@H](CSSC[C@@H](C(=O)N[C@@H](CCCCN)C(=O)N[C@@H](Cc2ccc(O)cc2)C(=O)N[C@H](C(=O)N[C@@H](Cc2ccccc2)C(N)=O)C(C)C)NC(=O)[C@H](Cc2c[nH]c4ccccc24)NC(=O)[C@H](CCCCN)NC(=O)[C@H](Cc2cnc[nH]2)NC(=O)[C@H]([C@@H](C)O)NC(=O)[C@H](CCCNC(=N)N)NC(=O)[C@H](CO)NC3=O)NC(=O)[C@H](CCCCN)NC(=O)[C@H](CC(=O)O)NC(=O)[C@H](CC(N)=O)NC(=O)[C@H](CC(=O)O)NC(=O)[C@@H]2CCCN2C1=O` [SEQ ID NO: 62] (H-RCLGFMRKCIPDNDKCCRPNLVCSRTHKWCKYVF-NH2; disulfide 2-17, 9-23, 16-30), which IC50 [1, 3] is on record?
Answer: 0.1 µM

Question: What about the IC50 [2, 4] of the same compound?
Answer: 8.78 µM

Question: How did the IC50 ([1]; use-dependent, […]) turn out when `CC[C@H](C)[C@@H]1NC(=O)[C@@H]2CSSC[C@@H]3NC(=O)[C@H](C(C)C)NC(=O)[C@H](CC(C)C)NC(=O)[C@H](CC(N)=O)NC(=O)[C@@H]4CCCN4C(=O)[C@H](CCCNC(=N)N)NC(=O)[C@H](CSSC[C@H](NC(=O)[C@@H](N)CC(=O)O)C(=O)N[C@@H](CC(C)C)C(=O)NCC(=O)N[C@@H](Cc4ccccc4)C(=O)N[C@@H](CCSC)C(=O)N[C@@H](CCCNC(=N)N)C(=O)N[C@@H](CCCCN)C(=O)N2)NC(=O)[C@H](CSSC[C@@H](C(=O)N[C@@H](CCCCN)C(=O)N[C@@H](Cc2ccc(O)cc2)C(=O)N[C@H](C(N)=O)C(C)C)NC(=O)[C@H](Cc2c[nH]c4ccccc24)NC(=O)[C@H](CCCCN)NC(=O)[C@H](Cc2cnc[nH]2)NC(=O)[C@H]([C@@H](C)O)NC(=O)[C@H](CCCNC(=N)N)NC(=O)[C@H](CO)NC3=O)NC(=O)[C@H](CCCCN)NC(=O)[C@H](CC(=O)O)NC(=O)[C@H](CC(N)=O)NC(=O)[C@H](CC(=O)O)NC(=O)[C@@H]2CCCN2C1=O` [compound 415] (H-DCLGFMRKCIPDNDKCCRPNLVCSRTHKWCKYV-NH2; disulfide 2-17, 9-23, 16-30) was run?
Answer: 1.3 µM

Question: And the IC50 ([2]; IonWorks Quattro, use-dependent, […], read-out: IWQ Use Nav1.5)?
Answer: 10.8 µM

Question: Which IC50 ([1]; use-dependent block, hNav1.3) does the source give for `CC[C@H](C)[C@@H]1NC(=O)[C@@H]2CSSC[C@@H]3NC(=O)[C@H](C(C)C)NC(=O)[C@H](CC(C)C)NC(=O)[C@H](CC(N)=O)NC(=O)[C@@H]4CCCN4C(=O)[C@H](CCCNC(=N)N)NC(=O)[C@H](CSSC[C@H](NC(=O)[C@@H](N)CC(=O)O)C(=O)N[C@@H](CC(C)C)C(=O)NCC(=O)N[C@@H](Cc4ccccc4)C(=O)N[C@@H](CCSC)C(=O)N[C@@H](C)C(=O)N[C@@H](CCCCN)C(=O)N2)NC(=O)[C@H](CSSC[C@@H](C(=O)N[C@@H](CCCCN)C(=O)N[C@@H](Cc2ccc(O)cc2)C(=O)N[C@H](C(=O)N[C@@H](Cc2ccccc2)C(N)=O)C(C)C)NC(=O)[C@H](Cc2c[nH]c4ccccc24)NC(=O)[C@H](CCCCN)NC(=O)[C@H](Cc2cnc[nH]2)NC(=O)[C@H]([C@@H](C)O)NC(=O)[C@H](CCCNC(=N)N)NC(=O)[C@H](CO)NC3=O)NC(=O)[C@H](CCCCN)NC(=O)[C@H](CC(=O)O)NC(=O)[C@H](CC(N)=O)NC(=O)[C@H](CC(=O)O)NC(=O)[C@@H]2CCCN2C1=O` [[Ala7]GpTx-1(1-34)] (H-DCLGFMAKCIPDNDKCCRPNLVCSRTHKWCKYVF-NH2; disulfide 2-17, 9-23, 16-30) here?
Answer: 0.83 µM

Question: And the IC50 ([2]; IonWorks Quattro, use-dependent block, hNav1.5, read-out: IWQ Use Nav1.5)?
Answer: 21.5 µM

Question: Which results are given for `CC[C@H](C)[C@@H]1NC(=O)[C@@H]2CSSC[C@@H]3NC(=O)[C@H](C(C)C)NC(=O)[C@H](CC(C)C)NC(=O)[C@H](CC(N)=O)NC(=O)[C@@H]4CCCN4C(=O)[C@H](CCCNC(=N)N)NC(=O)[C@H](CSSC[C@H](NC(=O)[C@H](C)N)C(=O)N[C@@H](CC(C)C)C(=O)NCC(=O)N[C@@H](Cc4ccccc4)C(=O)N[C@@H](CCSC)C(=O)N[C@@H](CCCNC(=N)N)C(=O)N[C@@H](CCCCN)C(=O)N2)NC(=O)[C@H](CSSC[C@@H](C(=O)N[C@@H](CCCCN)C(=O)N[C@@H](Cc2ccc(O)cc2)C(=O)N[C@H](C(=O)N[C@@H](Cc2ccccc2)C(N)=O)C(C)C)NC(=O)[C@H](Cc2c[nH]c4ccccc24)NC(=O)[C@H](CCCCN)NC(=O)[C@H](Cc2cnc[nH]2)NC(=O)[C@H]([C@@H](C)O)NC(=O)[C@H](CCCNC(=N)N)NC(=O)[C@H](CO)NC3=O)NC(=O)[C@H](CCCCN)NC(=O)[C@H](CC(=O)O)NC(=O)[C@H](CC(N)=O)NC(=O)[C@H](CC(=O)O)NC(=O)[C@@H]2CCCN2C1=O` [SEQ ID NO: 20] (H-ACLGFMRKCIPDNDKCCRPNLVCSRTHKWCKYVF-NH2; disulfide 2-17, 9-23, 16-30)?
Answer: IC50 [1, 3]: 0.08 µM; IC50 [2, 4]: 9.86 µM
